Experiments:
CysLT1 = CysLT1 (Homo sapiens, UniProt Q9Y271); assay: GPCR cell-based functional assay, Safety and Liability Panel; conditions: read-out: Percentage inhibition
NK3 = NK3 (Homo sapiens, UniProt P29371); assay: as above; conditions: read-out: Percentage inhibition
LPA3 = LPA3 (Homo sapiens, UniProt Q9UBY5); assay: as above; conditions: read-out: Percentage inhibition
CRF1 = CRF1 (Homo sapiens, UniProt P34998); assay: as above; conditions: read-out: Percentage inhibition
CXCR1 = CXCR1 (Homo sapiens, UniProt P25024); assay: as above; conditions: read-out: Percentage inhibition
hERG = hERG (Homo sapiens, UniProt Q12809); assay: in vitro
VPAC2 = VPAC2 (Homo sapiens, UniProt P41587); assay: GPCR cell-based functional assay, Safety and Liability Panel; conditions: read-out: Percentage inhibition
OPRD1 = OPRD1 (Homo sapiens, UniProt P41143); assay: as above; conditions: read-out: Percentage inhibition
VPAC1 = VPAC1 (Homo sapiens, UniProt P32241); assay: as above; conditions: read-out: Percentage inhibition
DP = DP (Homo sapiens, UniProt Q13258); assay: as above; conditions: read-out: Percentage inhibition
FPR1 = FPR1 (Homo sapiens, UniProt P21462); assay: as above; conditions: read-out: Percentage inhibition
TP = TP (Homo sapiens, UniProt P21731); assay: as above; conditions: read-out: Percentage inhibition
S1P3 = S1P3 (Homo sapiens, UniProt Q99500); assay: as above; conditions: read-out: Percentage inhibition
H3 = H3 (Homo sapiens, UniProt Q9Y5N1); assay: as above; conditions: read-out: Percentage inhibition
Motilin receptor = Motilin receptor (Homo sapiens, UniProt O43193); assay: as above; conditions: read-out: Percentage inhibition
LPA1 = LPA1 (Homo sapiens, UniProt Q92633); assay: as above; conditions: read-out: Percentage inhibition
FP = FP (Homo sapiens, UniProt P43088); assay: as above; conditions: read-out: Percentage inhibition
PTH1 = PTH1 (Homo sapiens, UniProt Q03431); assay: as above; conditions: read-out: Percentage inhibition
PRP = PRP (Homo sapiens, UniProt P49683); assay: as above; conditions: read-out: Percentage inhibition
EP2 = EP2 (Homo sapiens, UniProt P43116); assay: as above; conditions: read-out: Percentage inhibition
CCR2B = CCR2B (Homo sapiens, UniProt P41597); assay: as above; conditions: read-out: Percentage inhibition
GPR109A = GPR109A (Homo sapiens, UniProt Q8TDS4); assay: as above; conditions: read-out: Percentage inhibition
OPRK1 = OPRK1 (Homo sapiens, UniProt P41145); assay: as above; conditions: read-out: Percentage inhibition
PAF = PAF (Homo sapiens, UniProt P25105); assay: as above; conditions: read-out: Percentage inhibition
NMU1 = NMU1 (Homo sapiens, UniProt Q9HB89); assay: as above; conditions: read-out: Percentage inhibition
PAC1 long isoform = assay: as above; set-up: species or system human; conditions: 10 μM BIRB0796
5-HT1A = 5-HT1A (Homo sapiens, UniProt P08908); assay: as above; conditions: read-out: Percentage inhibition
M1 = M1 (Homo sapiens, UniProt P11229); assay: as above; conditions: read-out: Percentage inhibition
MC5 = MC5 (Homo sapiens, UniProt P33032); assay: as above; conditions: read-out: Percentage inhibition
V1A = V1A (Homo sapiens, UniProt P37288); assay: as above; conditions: read-out: Percentage inhibition
UT/GPR14 = UT/GPR14 (Homo sapiens, UniProt Q9UKP6); assay: as above; conditions: read-out: Percentage inhibition
OT = OT (Homo sapiens, UniProt P30559); assay: as above; conditions: read-out: Percentage inhibition
SST4 = SST4 (Homo sapiens, UniProt P31391); assay: as above; conditions: read-out: Percentage inhibition
A1 = A1 (Homo sapiens, UniProt P30542); assay: as above; conditions: read-out: Percentage inhibition
5-HT2C = 5-HT2C (Homo sapiens, UniProt P28335); assay: as above; conditions: read-out: Percentage inhibition
D2L = D2L (Homo sapiens, UniProt P14416); assay: as above; conditions: read-out: Percentage inhibition
ETB = ETB (Homo sapiens, UniProt P24530); assay: as above; conditions: read-out: Percentage inhibition
M2 = M2 (Homo sapiens, UniProt P08172); assay: as above; conditions: read-out: Percentage inhibition
BLT1 = BLT1 (Homo sapiens, UniProt Q15722); assay: as above; conditions: read-out: Percentage inhibition
CB2 = CB2 (Homo sapiens, UniProt P34972); assay: as above; conditions: read-out: Percentage inhibition
B2 = B2 (Homo sapiens, UniProt P30411); assay: as above; conditions: read-out: Percentage inhibition
V2 = V2 (Homo sapiens, UniProt P30518); assay: as above; conditions: read-out: Percentage inhibition
AT1 = AT1 (Homo sapiens, UniProt P30556); assay: as above; conditions: read-out: Percentage inhibition
CCK2 = CCK2 (Homo sapiens, UniProt P32239); assay: as above; conditions: read-out: Percentage inhibition
CGRP1 = CGRP1 (Homo sapiens, UniProt O60894+Q16602); assay: as above; conditions: read-out: Percentage inhibition
PK1 = PK1 (Homo sapiens, UniProt Q8TCW9); assay: as above; conditions: PK-1, read-out: Percentage inhibition
BB2 = BB2 (Homo sapiens, UniProt P30550); assay: as above; conditions: read-out: Percentage inhibition
C5aR = C5aR (Homo sapiens, UniProt P21730); assay: as above; conditions: read-out: Percentage inhibition
H2 = H2 (Homo sapiens, UniProt P25021); assay: as above; conditions: read-out: Percentage inhibition
Kv1.5 = Kv1.5 (Homo sapiens, UniProt P22460); assay: Cardiac ion channel functional assay, Safety and Liability Panel; format: cell-based
EP3 = EP3 (Homo sapiens, UniProt P43115); assay: GPCR cell-based functional assay, Safety and Liability Panel; conditions: read-out: Percentage inhibition
Y2 = Y2 (Homo sapiens, UniProt P49146); assay: as above; conditions: read-out: Percentage inhibition
CCR1 = CCR1 (Homo sapiens, UniProt P32246); assay: as above; conditions: read-out: Percentage inhibition
Beta 1 = Beta 1 (Homo sapiens, UniProt P08588); assay: as above; conditions: read-out: Percentage inhibition
GAL1 = GAL1 (Homo sapiens, UniProt P47211); assay: as above; conditions: read-out: Percentage inhibition
Trypsin-mediated PARs = assay: as above; set-up: species or system human; conditions: 10 μM BIRB0796
Alpha1D = Alpha1D (Homo sapiens, UniProt P25100); assay: as above; conditions: read-out: Percentage inhibition
IP1 = IP1 (Homo sapiens, UniProt P43119); assay: as above; conditions: read-out: Percentage inhibition
5-HT2B = 5-HT2B (Homo sapiens, UniProt P41595); assay: as above; conditions: read-out: Percentage inhibition
ETA = ETA (Homo sapiens, UniProt P25101); assay: as above; conditions: read-out: Percentage inhibition
A3 = A3 (Homo sapiens, UniProt P0DMS8); assay: as above; conditions: read-out: Percentage inhibition
H1 = H1 (Homo sapiens, UniProt P35367); assay: as above; conditions: read-out: Percentage inhibition
CX3CR1 = CX3CR1 (Homo sapiens, UniProt P49238); assay: as above; conditions: read-out: Percentage inhibition
CB1 = CB1 (Homo sapiens, UniProt P21554); assay: as above; conditions: read-out: Percentage inhibition
D1 = D1 (Homo sapiens, UniProt P21728); assay: as above; conditions: read-out: Percentage inhibition
Beta 2 = Beta 2 (Homo sapiens, UniProt P07550); assay: as above; conditions: read-out: Percentage inhibition
GnRH/LHRH = GnRH/LHRH (Homo sapiens, UniProt P30968); assay: as above; conditions: read-out: Percentage inhibition
NTR1 = NTR1 (Homo sapiens, UniProt P30989); assay: as above; conditions: read-out: Percentage inhibition
OPRM1 = OPRM1 (Homo sapiens, UniProt P35372); assay: as above; conditions: OPRM1, read-out: Percentage inhibition
5-HT2A = 5-HT2A (Homo sapiens, UniProt P28223); assay: as above; conditions: read-out: Percentage inhibition
P2Y1 = P2Y1 (Homo sapiens, UniProt P47900); assay: as above; conditions: read-out: Percentage inhibition
OX1 = OX1 (Homo sapiens, UniProt O43613); assay: as above; conditions: read-out: Percentage inhibition
NK1 = NK1 (Homo sapiens, UniProt P25103); assay: as above; conditions: read-out: Percentage inhibition
Alpha2A = Alpha2A (Homo sapiens, UniProt P08913); assay: as above; conditions: read-out: Percentage inhibition
M3 = M3 (Homo sapiens, UniProt P20309); assay: as above; conditions: read-out: Percentage inhibition
Alpha1A = Alpha1A (Homo sapiens, UniProt P35348); assay: as above; conditions: read-out: Percentage inhibition
TSH = TSH (Homo sapiens, UniProt P16473); assay: as above; conditions: read-out: Percentage inhibition
D5 = D5 (Homo sapiens, UniProt P21918); assay: as above; conditions: read-out: Percentage inhibition
Nav1.6 = Nav1.6 (Homo sapiens, UniProt Q9UQD0); assay: IonWorks Quattro 2-pulse inactivated-state protocol; format: cell-based; conditions: Predicted IC50 potency values Nav1.6 P1, Pulse 1, 2-pulse protocol

Sequence of EP3 (P43115 whole entry): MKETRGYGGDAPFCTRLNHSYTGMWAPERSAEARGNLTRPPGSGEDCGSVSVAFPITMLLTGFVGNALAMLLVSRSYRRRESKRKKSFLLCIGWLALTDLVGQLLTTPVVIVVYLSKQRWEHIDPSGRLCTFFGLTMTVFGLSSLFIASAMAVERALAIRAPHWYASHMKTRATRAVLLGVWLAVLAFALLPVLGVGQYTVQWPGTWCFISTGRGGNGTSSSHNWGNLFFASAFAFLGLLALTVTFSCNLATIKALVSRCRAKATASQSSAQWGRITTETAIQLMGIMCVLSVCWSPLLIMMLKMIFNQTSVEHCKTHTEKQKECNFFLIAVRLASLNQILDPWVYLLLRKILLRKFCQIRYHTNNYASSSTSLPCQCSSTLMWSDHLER
Sequence of OX1 (O43613 whole entry): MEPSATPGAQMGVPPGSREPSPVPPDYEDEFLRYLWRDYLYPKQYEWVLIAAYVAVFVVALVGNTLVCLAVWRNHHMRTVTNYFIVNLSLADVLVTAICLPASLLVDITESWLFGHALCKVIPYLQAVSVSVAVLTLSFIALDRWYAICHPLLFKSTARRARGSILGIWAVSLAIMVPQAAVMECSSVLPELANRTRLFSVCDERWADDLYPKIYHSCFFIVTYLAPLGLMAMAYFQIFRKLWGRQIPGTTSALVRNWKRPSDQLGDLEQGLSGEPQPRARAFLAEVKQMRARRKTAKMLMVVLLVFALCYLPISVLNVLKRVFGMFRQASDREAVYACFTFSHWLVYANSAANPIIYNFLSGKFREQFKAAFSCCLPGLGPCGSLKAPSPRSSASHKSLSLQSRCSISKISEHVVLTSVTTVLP
Sequence of LPA1 (Q92633 whole entry): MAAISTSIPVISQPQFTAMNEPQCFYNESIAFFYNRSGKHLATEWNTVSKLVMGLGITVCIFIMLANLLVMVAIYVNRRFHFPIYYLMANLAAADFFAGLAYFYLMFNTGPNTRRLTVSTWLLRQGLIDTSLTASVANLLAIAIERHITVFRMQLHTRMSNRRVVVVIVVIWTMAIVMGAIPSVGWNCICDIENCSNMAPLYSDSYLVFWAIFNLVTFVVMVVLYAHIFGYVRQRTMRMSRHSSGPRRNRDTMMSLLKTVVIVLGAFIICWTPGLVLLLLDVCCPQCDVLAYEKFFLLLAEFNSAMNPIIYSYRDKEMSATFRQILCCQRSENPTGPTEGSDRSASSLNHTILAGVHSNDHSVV
Sequence of ETB (P24530 27-442): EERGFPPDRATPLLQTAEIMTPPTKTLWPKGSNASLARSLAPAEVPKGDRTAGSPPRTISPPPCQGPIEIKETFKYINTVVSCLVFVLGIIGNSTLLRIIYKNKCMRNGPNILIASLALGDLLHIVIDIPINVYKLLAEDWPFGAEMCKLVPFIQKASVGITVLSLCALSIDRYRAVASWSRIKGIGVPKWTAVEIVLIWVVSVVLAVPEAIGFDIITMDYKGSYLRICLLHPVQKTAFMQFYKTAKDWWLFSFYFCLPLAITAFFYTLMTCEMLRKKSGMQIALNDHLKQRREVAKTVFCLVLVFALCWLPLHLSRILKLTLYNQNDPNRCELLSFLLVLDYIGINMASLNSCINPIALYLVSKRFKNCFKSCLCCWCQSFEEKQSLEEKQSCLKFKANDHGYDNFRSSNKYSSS
Sequence of D5 (P21918 whole entry): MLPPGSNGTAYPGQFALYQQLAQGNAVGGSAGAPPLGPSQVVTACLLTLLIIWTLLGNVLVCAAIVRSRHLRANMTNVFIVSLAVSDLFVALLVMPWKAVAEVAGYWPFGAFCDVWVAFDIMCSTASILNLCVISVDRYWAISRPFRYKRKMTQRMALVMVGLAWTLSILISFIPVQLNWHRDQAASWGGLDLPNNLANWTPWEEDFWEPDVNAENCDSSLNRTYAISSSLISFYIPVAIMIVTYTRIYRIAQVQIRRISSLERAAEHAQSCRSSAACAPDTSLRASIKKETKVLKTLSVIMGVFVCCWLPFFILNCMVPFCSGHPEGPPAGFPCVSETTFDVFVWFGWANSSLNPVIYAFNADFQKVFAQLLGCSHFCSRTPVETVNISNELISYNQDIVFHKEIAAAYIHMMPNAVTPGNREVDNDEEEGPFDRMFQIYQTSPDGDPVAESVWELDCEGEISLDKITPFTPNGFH
Sequence of OPRK1 (P41145 whole entry): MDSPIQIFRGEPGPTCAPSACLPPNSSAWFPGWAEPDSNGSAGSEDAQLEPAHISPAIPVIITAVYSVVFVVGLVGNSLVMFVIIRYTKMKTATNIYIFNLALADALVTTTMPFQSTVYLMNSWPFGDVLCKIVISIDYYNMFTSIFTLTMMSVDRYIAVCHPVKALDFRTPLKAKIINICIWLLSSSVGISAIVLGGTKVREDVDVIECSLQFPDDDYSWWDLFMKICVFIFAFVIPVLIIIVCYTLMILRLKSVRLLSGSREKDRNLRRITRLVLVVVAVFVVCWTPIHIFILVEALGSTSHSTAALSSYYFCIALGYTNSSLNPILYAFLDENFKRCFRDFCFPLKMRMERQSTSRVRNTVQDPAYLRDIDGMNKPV
Sequence of Alpha1A (P35348 whole entry): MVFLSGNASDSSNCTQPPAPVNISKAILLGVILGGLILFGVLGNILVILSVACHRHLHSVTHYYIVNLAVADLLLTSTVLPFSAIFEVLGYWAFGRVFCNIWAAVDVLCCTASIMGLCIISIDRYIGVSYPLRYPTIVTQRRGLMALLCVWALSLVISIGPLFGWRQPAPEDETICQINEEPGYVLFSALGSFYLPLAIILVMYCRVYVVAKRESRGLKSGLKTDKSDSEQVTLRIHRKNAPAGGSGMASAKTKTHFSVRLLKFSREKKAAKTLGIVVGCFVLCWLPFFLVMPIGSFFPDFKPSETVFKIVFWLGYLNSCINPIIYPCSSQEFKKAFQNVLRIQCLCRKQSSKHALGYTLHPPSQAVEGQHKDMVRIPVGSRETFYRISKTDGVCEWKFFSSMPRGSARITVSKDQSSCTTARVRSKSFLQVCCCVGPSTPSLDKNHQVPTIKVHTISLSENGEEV
Sequence of VPAC2 (P41587 24-438): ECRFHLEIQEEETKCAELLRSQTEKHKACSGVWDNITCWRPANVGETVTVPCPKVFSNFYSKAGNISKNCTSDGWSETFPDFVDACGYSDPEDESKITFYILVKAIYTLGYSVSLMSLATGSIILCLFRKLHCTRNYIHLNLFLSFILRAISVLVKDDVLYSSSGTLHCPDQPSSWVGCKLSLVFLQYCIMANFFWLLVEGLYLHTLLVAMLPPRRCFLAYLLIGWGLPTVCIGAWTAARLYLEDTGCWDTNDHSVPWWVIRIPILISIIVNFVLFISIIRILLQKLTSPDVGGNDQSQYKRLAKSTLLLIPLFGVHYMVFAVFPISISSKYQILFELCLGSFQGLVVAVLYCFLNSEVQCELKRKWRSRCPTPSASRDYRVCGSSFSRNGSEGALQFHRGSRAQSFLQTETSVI
Sequence of TP (P21731 whole entry): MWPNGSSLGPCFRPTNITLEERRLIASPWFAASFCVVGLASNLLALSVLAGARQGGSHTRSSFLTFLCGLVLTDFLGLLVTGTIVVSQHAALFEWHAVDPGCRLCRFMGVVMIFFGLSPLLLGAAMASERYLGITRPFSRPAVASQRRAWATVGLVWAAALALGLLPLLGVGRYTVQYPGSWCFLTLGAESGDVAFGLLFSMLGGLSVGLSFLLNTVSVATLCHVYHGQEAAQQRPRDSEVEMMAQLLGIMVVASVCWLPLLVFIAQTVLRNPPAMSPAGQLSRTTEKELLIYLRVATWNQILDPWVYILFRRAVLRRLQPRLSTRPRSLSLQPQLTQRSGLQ
Sequence of Alpha1D (P25100 whole entry): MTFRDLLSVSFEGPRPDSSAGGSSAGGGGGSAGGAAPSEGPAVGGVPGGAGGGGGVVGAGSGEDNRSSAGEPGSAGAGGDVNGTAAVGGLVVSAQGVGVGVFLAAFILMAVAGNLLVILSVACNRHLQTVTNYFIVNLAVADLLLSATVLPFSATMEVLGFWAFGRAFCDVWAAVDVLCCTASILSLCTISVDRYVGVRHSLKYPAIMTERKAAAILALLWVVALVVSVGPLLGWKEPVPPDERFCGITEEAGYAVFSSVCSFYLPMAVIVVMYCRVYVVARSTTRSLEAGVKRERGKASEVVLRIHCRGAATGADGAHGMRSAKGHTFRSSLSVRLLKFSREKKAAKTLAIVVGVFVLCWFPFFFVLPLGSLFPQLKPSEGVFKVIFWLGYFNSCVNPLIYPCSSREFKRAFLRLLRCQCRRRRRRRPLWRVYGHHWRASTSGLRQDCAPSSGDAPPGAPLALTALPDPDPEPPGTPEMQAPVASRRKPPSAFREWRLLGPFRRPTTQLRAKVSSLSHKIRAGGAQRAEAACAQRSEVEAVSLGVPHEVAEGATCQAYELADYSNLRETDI
Sequence of H1 (P35367 whole entry): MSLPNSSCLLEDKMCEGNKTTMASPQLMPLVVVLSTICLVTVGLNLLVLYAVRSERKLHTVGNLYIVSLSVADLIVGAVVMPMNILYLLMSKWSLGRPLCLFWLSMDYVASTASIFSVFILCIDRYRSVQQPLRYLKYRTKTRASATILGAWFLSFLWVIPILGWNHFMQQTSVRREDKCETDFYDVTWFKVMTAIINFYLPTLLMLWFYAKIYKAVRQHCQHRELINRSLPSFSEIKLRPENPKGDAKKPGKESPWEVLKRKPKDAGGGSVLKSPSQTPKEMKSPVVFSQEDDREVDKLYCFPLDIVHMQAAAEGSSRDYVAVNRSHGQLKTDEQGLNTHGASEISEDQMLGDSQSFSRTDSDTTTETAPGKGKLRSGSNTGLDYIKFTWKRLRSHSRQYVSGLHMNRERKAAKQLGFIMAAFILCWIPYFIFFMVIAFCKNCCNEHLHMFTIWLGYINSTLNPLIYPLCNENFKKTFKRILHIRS

Cc1ccc(-n2nc(C(C)(C)C)cc2NC(=O)Nc2ccc(OCCN3CCOCC3)c3ccccc23)cc1 [BIRB0796]
inhibition at 10 µM (CysLT1): 2% | inhibition at 10 µM (NK3): 17.5% | inhibition at 10 µM (LPA3): 5% | inhibition at 10 µM (CRF1): 13% | inhibition at 10 µM (CXCR1): -1.5% | inhibition at 10 µM (hERG): ≥ 50% | inhibition at 10 µM (VPAC2): -4% | inhibition at 10 µM (OPRD1): 8.5% | inhibition at 10 µM (VPAC1): -2% | inhibition at 10 µM (DP): 12.5% | inhibition at 10 µM (FPR1): -4.5% | inhibition at 10 µM (TP): 32% | inhibition at 10 µM (S1P3): -1.5% | inhibition at 10 µM (H3): 91.5% | inhibition at 10 µM (Motilin receptor): 94.5% | inhibition at 10 µM (LPA1): 6.5% | inhibition at 10 µM (FP): 20.5% | inhibition at 10 µM (PTH1): 0% | inhibition at 10 µM (PRP): 3% | inhibition at 10 µM (EP2): 2.5% | inhibition at 10 µM (CCR2B): 0% | inhibition at 10 µM (GPR109A): -1% | inhibition at 10 µM (OPRK1): -19% | inhibition at 10 µM (PAF): 19.5% | inhibition at 10 µM (NMU1): 22.5% | Percentage inhibition (PAC1 long isoform): 3.5% | inhibition at 10 µM (5-HT1A): 31% | inhibition at 10 µM (M1): 46.5% | inhibition at 10 µM (MC5): 2% | inhibition at 10 µM (V1A): 2% | inhibition at 10 µM (UT/GPR14): 18.5% | inhibition at 10 µM (OT): 12.5% | inhibition at 10 µM (SST4): -5.5% | inhibition at 10 µM (A1): 19.5% | inhibition at 10 µM (5-HT2C): 5.5% | inhibition at 10 µM (D2L): 53.5% | inhibition at 10 µM (ETB): 11% | inhibition at 10 µM (M2): 34.5% | inhibition at 10 µM (BLT1): 8.5% | inhibition at 10 µM (CB2): 80% | inhibition at 10 µM (B2): -4.5% | inhibition at 10 µM (V2): 1% | inhibition at 10 µM (AT1): -2.5% | inhibition at 10 µM (CCK2): 2% | inhibition at 10 µM (CGRP1): 0% | inhibition at 10 µM (PK1): -6.5% | inhibition at 10 µM (BB2): 0% | inhibition at 10 µM (C5aR): -5.5% | inhibition at 10 µM (H2): -5.5% | inhibition at 10 µM (Kv1.5): ≥ 50% | inhibition at 10 µM (EP3): 7.5% | inhibition at 10 µM (Y2): -13.5% | inhibition at 10 µM (CCR1): -6% | inhibition at 10 µM (Beta 1): -6% | inhibition at 10 µM (GAL1): -1.5% | Percentage inhibition (Trypsin-mediated PARs): 9.0% | inhibition at 10 µM (Alpha1D): 3.5% | inhibition at 10 µM (IP1): 12.5% | inhibition at 10 µM (5-HT2B): 18.5% | inhibition at 10 µM (ETA): -4% | inhibition at 10 µM (A3): 20.5% | inhibition at 10 µM (H1): -1.5% | inhibition at 10 µM (CX3CR1): -12% | inhibition at 10 µM (CB1): 9% | inhibition at 10 µM (D1): 23% | inhibition at 10 µM (Beta 2): -9.5% | inhibition at 10 µM (GnRH/LHRH): -20.5% | inhibition at 10 µM (NTR1): -12% | inhibition at 10 µM (OPRM1): -2.5% | inhibition at 10 µM (5-HT2A): 99.5% | inhibition at 10 µM (P2Y1): 10.5% | inhibition at 10 µM (OX1): 12% | inhibition at 10 µM (NK1): 12% | inhibition at 10 µM (Alpha2A): -4% | inhibition at 10 µM (M3): 5% | inhibition at 10 µM (Alpha1A): 6% | inhibition at 10 µM (TSH): -4% | inhibition at 10 µM (D5): 14%

CCN(CC)CC(=O)Nc1c(C)cccc1C [Lidocaine]
IC50 (Nav1.6): 270 µM

— article PMC3236397 (Frontiers in Pharmacology, 2011)
